# Measurements reported in patent US10300031B2, “Pharmaceutical compositions for treating chronic pain and pain associated with neuropathy” (priority 2007, dated 2019).
# Values joined by “and” are separate entries in the source; they are usually repeats but may differ in a detail not shown here. Equal values may be shown once. Where a name gives a salt, the structure may show the parent alone. Read-outs that look alike come from different tables or passages of the source.
# Columns and labels:
# fibromyalgia pain = test: Combination therapy in patients with fibromyalgia (Table 2, testimonies); assay type: in vivo, human; conditions: for Pain Relief (percent of reduction in pain), Fibromyalgia: TLI-1026 twice daily (N = 5), single agents mg/day: dextromethorphan 70, tramadol 70, gabapentin 180
# diabetic neuropathy pain [1] = test: Combination therapy in patients with diabetic neuropathy (Table 2, testimonies); conditions: for Pain Relief (percent of reduction in pain), Diabetic Neuropathy: TLI-1026 twice daily (N = 5), single agents mg/day: dextromethorphan 70, tramadol 70, gabapentin 180; for pain relief (patient or physician testimony): diabetic neuropathy patients; for side effects / tolerability: two patients with diabetic peripheral polyneuropathy
# [2] = 0.2M sodium chloride; cited from earlier work
# [3] = test system: pain in diabetic neuropathy and fibromyalgia patients; test: Pooled statements on pain reduction in diabetic neuropathy and fibromyalgia patients; assay type: in vivo, human
# Diabetic Neuropathy = conditions: Dose mg/day: dextromethorphan hydrobromide 400-480, tramadol hydrochloride 400, gabapentin 3600; cited from earlier work
# Fibromyalgia = conditions: Dose mg/day: dextromethorphan hydrobromide 400-480, tramadol hydrochloride 400, gabapentin 3600; cited from earlier work
# μ-opiate receptors = μ-opiate receptors (Homo sapiens, UniProt P35372); conditions: cited from earlier work
# [4] = cited from earlier work; for accumulation during multiple dose treatment: multiple dose treatment with tramadol
# diabetic neuropathy pain [5] = conditions: human, in vivo
# [6] = cited from earlier work
# CYP1A2 = CYP1A2 (Homo sapiens, UniProt P05177); conditions: gabapentin concentrations up to 171 μg/mL; cited from earlier work
# CYP2C9 = CYP2C9 (Homo sapiens, UniProt P11712); conditions: gabapentin concentrations up to 171 μg/mL; cited from earlier work
# CYP2C19 = CYP2C19 (Homo sapiens, UniProt P33261); conditions: gabapentin concentrations up to 171 μg/mL; cited from earlier work
# CYP2D6 = CYP2D6 (Homo sapiens, UniProt P10635); conditions: gabapentin concentrations up to 171 μg/mL; cited from earlier work
# CYP2E1 = CYP2E1 (Homo sapiens, UniProt P05181); conditions: gabapentin concentrations up to 171 μg/mL; cited from earlier work
# CYP3A4 = CYP3A4 (Homo sapiens, UniProt P08684); conditions: gabapentin concentrations up to 171 μg/mL; cited from earlier work
# [7] = test system: pain (arthritis, back, cancer neuropathy, tooth, lumbar, cervical spondyolosis, knee); conditions: in vivo
# postherpetic neuralgia = conditions: oral amitriptyline; cited from earlier work
# [8] = test system: painful diabetic neuropathy; conditions: oral amitriptyline; cited from earlier work
# [9] = test system: Na+ currents in adrenal chromaffin cells; conditions: read-out: IC50, peak Na+ currents; cited from earlier work
# cardiac Na+ channels = cardiac Na+ channels (Homo sapiens, UniProt Q14524); conditions: cited from earlier work
# hH1 Na+ channels = hH1 Na+ channels (Homo sapiens, UniProt Q14524); conditions: cited from earlier work; for IC50: 0.1-100 μM
# [10] = test system: NF-κ-B activation in human myeloid ML-1a cells; conditions: pretreatment of ML-1a cells; dose- and time-dependent; cited from earlier work
# [11] = i.v. administration, rats; cited from earlier work
# [12] = oral dosing of rats, after 3 hours; cited from earlier work
# [13] = 90 g cream (0.025% capsaicin) per week, 100% absorbed, 50 kg person; cited from earlier work
# [14] = test system: transient K+ channels in hippocampal neurons; conditions: cited from earlier work
# pain score in patients = conditions: cited from earlier work
# [15] = test system: patients with diabetic peripheral neuropathy; conditions: diabetic peripheral neuropathy trials; cited from earlier work
# [16] = test system: patients with fibromyalgia; conditions: fibromyalgia trials, cited from earlier work
# hH1 Na+ channels, sequence (Q14524 whole entry): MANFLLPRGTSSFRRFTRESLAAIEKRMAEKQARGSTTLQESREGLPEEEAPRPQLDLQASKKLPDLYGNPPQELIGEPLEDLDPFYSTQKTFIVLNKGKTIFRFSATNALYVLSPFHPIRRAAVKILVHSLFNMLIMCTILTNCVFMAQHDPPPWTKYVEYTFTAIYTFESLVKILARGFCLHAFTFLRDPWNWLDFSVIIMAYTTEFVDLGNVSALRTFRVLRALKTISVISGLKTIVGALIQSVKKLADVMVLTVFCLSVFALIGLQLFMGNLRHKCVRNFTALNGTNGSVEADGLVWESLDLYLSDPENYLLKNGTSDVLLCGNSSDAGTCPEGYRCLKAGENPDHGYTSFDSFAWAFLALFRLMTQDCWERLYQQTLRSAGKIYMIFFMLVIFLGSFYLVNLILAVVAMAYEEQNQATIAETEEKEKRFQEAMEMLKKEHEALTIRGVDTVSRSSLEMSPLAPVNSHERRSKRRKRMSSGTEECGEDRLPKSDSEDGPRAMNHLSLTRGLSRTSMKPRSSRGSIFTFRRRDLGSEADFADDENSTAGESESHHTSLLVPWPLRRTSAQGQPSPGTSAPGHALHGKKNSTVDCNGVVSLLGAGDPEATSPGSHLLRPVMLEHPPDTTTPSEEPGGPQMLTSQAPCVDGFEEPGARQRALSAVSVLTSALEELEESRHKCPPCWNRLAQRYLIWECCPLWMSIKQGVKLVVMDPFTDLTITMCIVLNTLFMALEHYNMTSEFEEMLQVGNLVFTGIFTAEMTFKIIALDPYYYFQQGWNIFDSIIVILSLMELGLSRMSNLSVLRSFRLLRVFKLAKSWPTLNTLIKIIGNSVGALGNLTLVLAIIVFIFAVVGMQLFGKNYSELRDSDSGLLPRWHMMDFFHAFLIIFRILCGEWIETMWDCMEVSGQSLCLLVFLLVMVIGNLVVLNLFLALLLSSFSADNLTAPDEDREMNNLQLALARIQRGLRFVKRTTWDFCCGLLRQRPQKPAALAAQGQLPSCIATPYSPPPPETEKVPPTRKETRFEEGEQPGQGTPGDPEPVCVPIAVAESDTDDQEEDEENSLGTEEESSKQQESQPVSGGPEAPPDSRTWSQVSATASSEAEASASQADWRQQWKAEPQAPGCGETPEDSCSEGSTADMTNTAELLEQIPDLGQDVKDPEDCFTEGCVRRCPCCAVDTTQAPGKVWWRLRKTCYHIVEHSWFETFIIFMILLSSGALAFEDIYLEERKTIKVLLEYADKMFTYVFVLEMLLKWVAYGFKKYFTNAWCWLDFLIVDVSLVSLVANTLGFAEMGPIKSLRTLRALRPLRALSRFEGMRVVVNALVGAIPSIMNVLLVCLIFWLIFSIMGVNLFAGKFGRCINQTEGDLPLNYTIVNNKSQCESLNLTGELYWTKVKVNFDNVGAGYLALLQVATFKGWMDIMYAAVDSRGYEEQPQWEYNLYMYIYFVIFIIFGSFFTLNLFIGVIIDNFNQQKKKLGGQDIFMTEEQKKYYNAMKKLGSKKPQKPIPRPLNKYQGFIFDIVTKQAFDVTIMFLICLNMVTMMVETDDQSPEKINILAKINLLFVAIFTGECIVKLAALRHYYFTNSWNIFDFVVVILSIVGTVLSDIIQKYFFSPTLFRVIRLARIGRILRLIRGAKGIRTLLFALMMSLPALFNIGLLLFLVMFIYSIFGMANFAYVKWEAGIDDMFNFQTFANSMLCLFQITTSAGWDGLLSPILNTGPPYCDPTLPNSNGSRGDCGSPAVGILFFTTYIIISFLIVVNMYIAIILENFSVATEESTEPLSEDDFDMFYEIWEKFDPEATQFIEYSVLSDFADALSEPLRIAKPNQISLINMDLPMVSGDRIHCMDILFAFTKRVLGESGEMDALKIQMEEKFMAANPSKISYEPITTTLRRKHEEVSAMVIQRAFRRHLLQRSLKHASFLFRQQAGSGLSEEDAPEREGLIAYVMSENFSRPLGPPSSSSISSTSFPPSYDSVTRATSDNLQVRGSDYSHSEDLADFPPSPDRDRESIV
# μ-opiate receptors, sequence (P35372 whole entry): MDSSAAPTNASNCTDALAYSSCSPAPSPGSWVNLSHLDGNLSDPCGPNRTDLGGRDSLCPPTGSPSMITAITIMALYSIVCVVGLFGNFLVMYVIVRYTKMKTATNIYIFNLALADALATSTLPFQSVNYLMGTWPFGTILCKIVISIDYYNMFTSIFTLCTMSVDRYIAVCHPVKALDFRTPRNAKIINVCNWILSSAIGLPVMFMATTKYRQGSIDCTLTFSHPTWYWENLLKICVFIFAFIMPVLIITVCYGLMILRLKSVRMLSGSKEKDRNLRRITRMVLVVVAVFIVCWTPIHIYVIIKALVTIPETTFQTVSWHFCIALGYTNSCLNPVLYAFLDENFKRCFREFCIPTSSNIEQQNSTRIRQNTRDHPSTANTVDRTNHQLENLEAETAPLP
# cardiac Na+ channels, sequence (Q14524 whole entry): as the sequence (Q14524 whole entry) above
# CYP3A4, sequence (P08684 whole entry): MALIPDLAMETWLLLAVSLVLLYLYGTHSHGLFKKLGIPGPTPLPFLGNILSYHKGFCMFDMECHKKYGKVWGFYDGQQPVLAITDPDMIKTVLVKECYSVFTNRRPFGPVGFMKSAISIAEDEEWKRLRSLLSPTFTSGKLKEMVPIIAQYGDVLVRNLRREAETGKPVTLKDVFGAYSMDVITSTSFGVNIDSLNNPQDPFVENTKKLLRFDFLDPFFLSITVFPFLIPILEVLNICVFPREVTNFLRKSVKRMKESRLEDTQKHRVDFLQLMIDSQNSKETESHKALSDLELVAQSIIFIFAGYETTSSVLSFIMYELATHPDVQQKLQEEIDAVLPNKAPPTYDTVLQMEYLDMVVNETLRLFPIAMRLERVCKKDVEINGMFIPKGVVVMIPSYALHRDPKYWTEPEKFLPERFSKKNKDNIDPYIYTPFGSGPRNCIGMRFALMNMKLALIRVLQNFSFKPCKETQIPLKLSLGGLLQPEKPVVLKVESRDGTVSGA
smiles,measurement,setting,value
COc1ccc2c(c1)[C@]13CCCC[C@@H]1[C@H](C2)N(C)CC3,"Pain Relief (percent of reduction in pain), Fibromyalgia",fibromyalgia pain,<10%
same,"Pain Relief (percent of reduction in pain), Diabetic Neuropathy",diabetic neuropathy pain [1],<10%
"COc1ccc(C(CN(C)C)C2(O)CCCCC2)cc1 (racemic) [Venlafaxine hydrochloride, (R/S)-1-[2-(dimethylamino)-1-(4-methoxyphenyl)ethyl]cyclohexanol]",octanol:water partition coefficient,[2],0.43
"COc1cccc(C2(O)CCCCC2CN(C)C)c1 (single isomer, unassigned) [Tramadol Hydrochloride, (1R,2R or 1S,2S)-(dimethylaminomethyl)-1-(3-methoxyphenyl)-cyclohexanol]","Pain Relief (percent of reduction in pain), Fibromyalgia",fibromyalgia pain,<10%
same,pain relief (patient or physician testimony),fibromyalgia pain; fibromyalgia patients,moderate relief
same,reduction in pain,"[3]; 400 mg of tramadol per day, patients with diabetic neuropathy and fibromyalgia",30-40%
same,"Pain Relief (percent of reduction in pain), Diabetic Neuropathy",Diabetic Neuropathy,<35 (Sindrup 1999) percent and <35%
same,"Pain Relief (percent of reduction in pain), Fibromyalgia",Fibromyalgia,<30 (Biasi 1998; percent
same,affinity for μ-opiate receptors relative to dextromethorphan,μ-opiate receptors,equivalent
same,"affinity for μ-opiate receptors, fold less than codeine",μ-opiate receptors,10 fold
same,"affinity for μ-opiate receptors, fold less than d-propoxyphene",μ-opiate receptors,100 fold
same,"affinity for μ-opiate receptors, fold less than morphine",μ-opiate receptors,"6,000 fold"
same,time to peak serum concentrations,[4]; after oral administration,≤ 2 h
same,accumulation during multiple dose treatment,[4],approximately 2 fold
same,duration of the analgesic effect,[4]; single oral dose of tramadol 100 mg,about 6 hours
same,"Pain Relief (percent of reduction in pain), Diabetic Neuropathy",diabetic neuropathy pain [1],<10%
COc1ccc2c(c1)[C@]13CCCC[C@@H]1[C@H](C2)N(C)CC3 [Dextromethorphan Hydrobromide],"Pain Relief (percent of reduction in pain), Diabetic Neuropathy",Diabetic Neuropathy,<50 (Sang 2002) percent and <50%
same,"Pain Relief (percent of reduction in pain), Fibromyalgia",Fibromyalgia,<40 (Staud 2005) percent
CN(C)CCC=C1c2ccccc2CCc2ccccc21 [Elavil],side effects / tolerability,diabetic neuropathy pain [5],"substantial, negative side effects"
same,pain relief (patient or physician testimony),diabetic neuropathy pain [1],no substantial pain relief
NCC1(CC(=O)O)CCCCC1 [Gabapentin],"Pain Relief (percent of reduction in pain), Fibromyalgia",fibromyalgia pain,<10%
same,relief from pain with prior therapy (physician testimony),"[3]; up to 1600 mg per day, patients with diabetic neuropathy or fibromyalgia",partial and marginal relief
same,"Pain Relief (percent of reduction in pain), Diabetic Neuropathy",Diabetic Neuropathy,<50 (Marchettini percent and <50%
same,"Pain Relief (percent of reduction in pain), Fibromyalgia",Fibromyalgia,<50 (Lesley 2007) percent
same,bioavailability,[6]; 900 mg/day given in 3 divided doses,approximately 60%
same,bioavailability,[6]; 1200 mg/day given in 3 divided doses,~47%
same,bioavailability,[6]; 2400 mg/day given in 3 divided doses,~34%
same,bioavailability,[6]; 3600 mg/day given in 3 divided doses,~33%
same,bioavailability,[6]; 4800 mg/day given in 3 divided doses,~27%
same,increase in AUC and Cmax with food,[6]; food effect,14%
same,bound to plasma protein,[6]; in vivo,Less than 3%
same,"steady-state predose (Cmin) concentration in cerebrospinal fluid, % of corresponding plasma concentrations",[6]; patients with epilepsy,approximately 20%
same,inhibition of CYP1A2,CYP1A2,No inhibition
same,inhibition of CYP2C9,CYP2C9,No inhibition
same,inhibition of CYP2C19,CYP2C19,No inhibition
same,inhibition of CYP2D6,CYP2D6,No inhibition
same,inhibition of CYP2E1,CYP2E1,No inhibition
same,inhibition of CYP3A4,CYP3A4,No inhibition
same,"Pain Relief (percent of reduction in pain), Diabetic Neuropathy",diabetic neuropathy pain [1],<10%
same,pain relief (patient or physician testimony),diabetic neuropathy pain [1]; listed as Neurontin,no substantial pain relief
same,pain relief (patient or physician testimony),diabetic neuropathy pain [1]; listed as Nurontin,only curb the pain
same,side effects / tolerability,diabetic neuropathy pain [1],"substantial, negative side effects"
CC(C)C[C@H](CN)CC(=O)O [Lyrica],pain relief (patient or physician testimony),diabetic neuropathy pain [1],only minimal resolution of symptoms
same,side effects / tolerability,diabetic neuropathy pain [1],"substantial, negative side effects"
CN(C)C[C@H]1CCCC[C@]1(O)c1cccc(O)c1 [M1 derivative],half-life,[4]; after a single oral dose of 100 mg,9 h
same,accumulation during multiple dose treatment,[4],approximately 2 fold
"CCCC(C)(COC(N)=O)COC(=O)NC(C)C (stereo not shown) [Soma, Carisoprodol]",pain relief (testimony),[7],only seemed to mask the pain
same,side effects,[7],quite drowsy
CN(C)CCC=C1c2ccccc2CCc2ccccc21 [amitriptyline],share of patients with a good or moderate response,postherpetic neuralgia,about two-thirds
same,share of patients with a good or moderate response,[8],three-quarters
same,IC50,[9],20.2 µM
same,use-dependent block of Na+ current,"cardiac Na+ channels; 0.4 μM, repetitive pulses at a frequency of 5 Hz, cardiac myocytes",profound use-dependent block
same,time constant of recovery from the use-dependent block,cardiac Na+ channels; cardiac Na+ channels,13.6 s
same,use-dependent block during repetitive pulses,"hH1 Na+ channels; 1 μM, 5 Hz",~55%
same,IC50,"hH1 Na+ channels; inactivated channels, n=7, read-out: IC50, tonic block of inactivated hH1 channels",0.58 ± 0.03 µM
same,IC50,"hH1 Na+ channels; resting channels, n=9, read-out: IC50, tonic block of resting hH1 channels",24.8 ± 2 µM
"COc1cc(CNC(=O)CCCCC=CC(C)C)ccc1O [capsaicin, 8-methyl-N-vanillyl-6-nonenamide]",effect on TNF-mediated activation of NF-κ-B,[10],blocked TNF-mediated activation of NF-κ-B
same,"time to distribution to brain, spinal cord, liver and blood",[11],≤ 20 min
same,absorption in the jejunum,[12],85%
same,estimated daily exposure,[13],0.064 mg/kg
CN(C)CCCN1c2ccccc2CCc2ccccc21 [imipramine],IC50,[14],~6 µM
CC(C)C[C@H](CN)CC(=O)O [pregabalin],endpoint mean pain score and proportion with at least a 50% reduction in pain score,"pain score in patients; 8-week study, 50 and 100 mg three times a day",statistically significantly improved
same,endpoint mean pain score and proportion with at least a 50% reduction in pain score,"pain score in patients; 8-week study, 100 or 200 mg three times a day, doses assigned by creatinine clearance",statistically significantly improved
same,endpoint mean pain score and proportion with at least a 50% reduction in pain score,"pain score in patients; 13-week study, 75, 150, 300 mg twice daily, creatinine clearance greater than 60 mL/min, all doses",statistically significantly improved
same,endpoint mean pain score and proportion with at least a 50% reduction in pain score,pain score in patients; 100 and 200 mg three times a day,statistically significantly improved
same,discontinuation due to dizziness,[15],3%
same,discontinuation due to somnolence,[15],2%
same,patients who discontinued prematurely due to adverse reactions,[15],9%
same,"withdrawal due to each of asthenia, confusion, peripheral edema",[15],approximately 1%
same,patients who discontinued prematurely due to adverse reactions,[16]; 150-600 mg/day,19%
same,discontinuation due to dizziness,[16],6%
same,discontinuation due to somnolence,[16],3%
same,"withdrawal due to each of fatigue, headache, balance disorder, weight increased",[16],approximately 1%
